Results as given in article PMC8703466, “Unravelling the Interaction of Piperlongumine with the Nucleotide-Binding Domain of HSP70: A Spectroscopic and In Silico Study” (Pharmaceuticals, 2021).

Molecular target: T1, nucleotide-binding domain of heat shock protein 70 (NBD/HSP70) (Homo sapiens, UniProt P0DMV8)
T1 construct: gene HSPA1A
Test: intrinsic Trp90 fluorescence quenching titration (steady-state, IDF/Hill fit), supported by time-resolved fluorescence; CD
Settings: read-out: intrinsic Trp90 fluorescence quenching titration (steady-state, IDF/Hill fit), s

T1 sequence (P0DMV8 1-382 limits assumed): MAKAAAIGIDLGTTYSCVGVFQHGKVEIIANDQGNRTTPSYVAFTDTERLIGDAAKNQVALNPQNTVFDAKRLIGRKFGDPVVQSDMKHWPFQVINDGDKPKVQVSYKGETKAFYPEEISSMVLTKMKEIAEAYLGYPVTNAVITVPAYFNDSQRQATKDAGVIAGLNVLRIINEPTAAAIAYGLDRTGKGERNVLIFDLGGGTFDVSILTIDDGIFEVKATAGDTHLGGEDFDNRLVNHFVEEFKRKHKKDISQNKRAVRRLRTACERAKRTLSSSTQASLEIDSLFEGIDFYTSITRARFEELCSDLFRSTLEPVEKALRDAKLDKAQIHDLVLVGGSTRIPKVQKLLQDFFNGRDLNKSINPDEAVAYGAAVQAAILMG

## COc1cc(/C=C/C(=O)N2CCC=CC2=O)cc(OC)c1OC [PPL, Piperlongumine]
  Kd: 15.9 µM
